From ChEMBL document CHEMBL1139958, “Synthesis and biological evaluation of analogues of the anti-tumor alkaloid naamidine A” (Bioorg Med Chem Lett, 2007) come the findings set out here.

Where only a bound is given, the exact number is not on record here.

One assay is described as follows: Inhibition EGF-dependent mitogenesis of mouse BaF/ERX cells by [3H]thymidine incorporation assay. It counts as functional, cell-based.
For orientation: IC50 means the concentration that inhibits the measured activity by half. For the compound `CN1C(=O)N=C(Nc2nc(-c3ccccc3)c(-c3ccccc3)s2)C1=O`, the 50% inhibitory concentration (IC50) was > 75 µM.

`COc1ccc(Cc2nc(N)sc2Cc2ccc(O)cc2)cc1` returned an IC50 of 18 µM.

With `COc1ccc(Cc2[nH]c(=N)n(C)c2Cc2ccc(O)cc2)cc1` [NAAMINE A], half-maximal inhibition (IC50) was put at 75 µM.

As to `COc1ccc(-c2nc(NC3=NC(=O)N(C)C3=O)sc2-c2ccc(OC)cc2)cc1`, the IC50 was 50 µM.

In the case of `CN1C(=O)N=C(Nc2nc(Cc3ccc(OCc4ccccc4)cc3)c(Cc3ccc(O)cc3)s2)C1=O`, the IC50 is > 75 µM.

`CN1C(=O)N=C(Nc2nc(-c3ccc(O)cc3)c(-c3ccc(O)cc3)s2)C1=O` displayed an IC50 of 5 µM.

`COc1ccc(-c2nc(NC(=O)[C@H](C)N)sc2-c2ccc(OC)cc2)cc1` displayed an IC50 of 12 µM.

On to `COc1ccc(-c2nc(N)sc2-c2ccc(OC)cc2)cc1`, for which the IC50 was > 75 µM.

In turn, `COc1ccc(Cc2nc(NC3=NC(=O)N(C)C3=O)n(C)c2Cc2ccc(O)cc2)cc1` showed a 50% inhibitory concentration (IC50) of 3 µM.

For `COc1ccc(-c2nc(NC(=O)NCc3ccccc3)sc2-c2ccc(OC)cc2)cc1`, the concentration for half-maximal inhibition (IC50) is > 75 µM.

Compound `CN1C(=O)N=C(Nc2nc(-c3ccccc3)c(Cc3ccc(O)cc3)s2)C1=O` returned a half-inhibitory concentration (IC50) of 25 µM.

In turn, `CN1C(=O)N=C(Nc2nc(-c3ccc(Cl)cc3)c(Cc3ccc(O)cc3)s2)C1=O` showed an IC50 of 15 µM.

Turning to `Nc1nc(-c2ccccc2)c(Cc2ccc(O)cc2)s1`, it took 50 µM to reach half-maximal inhibition (IC50).

On to `COc1ccc(Cc2nc(NC3=NC(=O)N(C)C3=O)sc2Cc2ccc(O)cc2)cc1`, for which inhibition was half-maximal at 10 µM (IC50).

`Nc1nc(-c2ccc(O)cc2)c(-c2ccc(O)cc2)s1`: the IC50 is > 75 µM.

Take `Nc1nc(-c2ccccc2)c(-c2ccccc2)s1`: the IC50 was > 75 µM.

On to `CN1C(=O)N=C(Nc2ncc(Cc3ccc(O)cc3)n2C)C1=O`, for which half-maximal inhibition (IC50) was put at 4 µM.

The nature of another assay: Inhibition IL3-dependent mitogenesis of mouse BaF/ERX cells by [3H]thymidine incorporation assay. It counts as functional, cell-based. (In general: Dividing cells build labelled thymidine or BrdU into new DNA.)
Compound `COc1ccc(Cc2[nH]c(=N)n(C)c2Cc2ccc(O)cc2)cc1` [NAAMINE A] came in with a 50% inhibitory concentration (IC50) of 75 µM.

Compound `COc1ccc(-c2nc(NC3=NC(=O)N(C)C3=O)sc2-c2ccc(OC)cc2)cc1` displayed an IC50 of 10 µM.
